Laboratory results reported in patent US12023348B2, “EGR1 targeting molecules for the treatment of inflammatory and hyperproliferative conditions” (The Medical Research, Infrastructure and Health Services …, priority 2015, dated 2024).

Experiments:
SAMD9 [1] = test: SAMD9 RNA expression by qRT-PCR in TERC-transformed fibroblasts; type: cell-based, human; conditions: 5 μM, 24 hours, qRT-PCR vs DMSO (FIG. 1C)
Method: TERC-transformed fibroblasts were transformed with a pBABE-H2AGFP construct containing the human telomerase gene were cultured High Glucose DMEM, 10% FCS, L-glutamine and Pen-Strep (all cell culture regents from Biological Industries, Israel). Medium was changed every 2-3 days. Cells were used at passage 2-3.
(§1) Of note, when cells were incubated with CaCx and ApDx (NCI, MA USA), they were grown in the appropriate medium with 0.1% FCS only.
RNA was extracted from cell cultures using an RNA extraction kit (Roche Diagnostics, Mahheim, Germany). cDNA was synthesized from 500 ng of total RNA using the Verso cDNA kit (Thermo Fisher Scientific, Waltham, MA, USA). cDNA PCR amplification was carried out using the Fast SYBR Green Master Mix in a StepOnePlus™ Real-Time PCR System (Applied Biosystems, Foster City, CA, USA) with gene-specific intron-crossing oligonucleotide pairs listed in Table 1 (below). For quantification, standard curves were obtained using serially diluted cDNA amplified in the same qRT-PCR run. The melting temperature (Tm) of the amplified products was measured to confirm the specificity of the reaction conditions. […] Each sample was analyzed in triplicate. mRNA expression level for target gene was normalized to GAPDH. The results are based the amount of target, normalized to an endogenous reference (IACTB) and relative to a calibrator, as calculated by 2-ΔΔCT. […]

[2] = system: imiquimod-induced psoriasiform dermatitis; test: Imiquimod-induced psoriasiform dermatitis in mice; type: in vivo; conditions: for Overt toxicity / Inflammatory infiltrate / Epidermal thickness / Index of proliferation (Ki67): i.p. five times a week, CaCx 22.5 mg/kg or ApDx 7.5 mg/kg; for Overt toxicity: 5 days; for Inflammatory infiltrate: biopsies after 5 days; for Epidermal thickness / Index of proliferation (Ki67): biopsies after 5 days (FIG. 5A); for EGR1 RNA levels in treated skin: quantitative PCR vs vehicle group (FIG. 5B); for EGR1 RNA levels in treated skin / IL-33 RNA levels in treated skin: CaCx 22.5 mg/kg or ApDx 7.5 mg/kg i.p.; for IL-33 RNA levels in treated skin: quantitative PCR vs vehicle group (FIG. 5C)
Method: Balb/c mice (Harlan Laboratories Ltd, Jerusalem, Israel), 9 weeks of age, were maintained in a pathogen-free animal facility. Animal care and research protocols had been approved by the institutional committee for animal use. Imiquimod 5% (Perrigo, Israel) was used as topical treatment for the mice on their upper backs. Mice were injected i.p. five times a week with DMSO or 7.5-22.5 mg/kg of ApDx and CaCx, respectively (NCI). 10% DMSO in […] was used as a vehicle control.
Formaldehyde-fixed 5-μm paraffin-embedded sections from skin biopsies were deparaffinized and treated with 3% H2O2 in methanol for 15 minutes at room temperature, warmed in a microwave oven in citrate buffer in a pressure cooker for 25 minutes, and stained with a monoclonal anti-Ki67 antibody (Thermo Scientific) for 1 hour at room temperature. Following 3 washings (10 minutes each) with phosphate-buffered saline (PBS), the antibodies were imaged using the ABC technique (Zymed Laboratories, South San Francisco, CA) and the slides were counterstained with hematoxylin.
Epidermal thickness was defined as the distance between the granular layer and the basement membrane and was measured at 10 randomly selected locations for each biopsy using NIS-Elements BR 3.2 software (Nikon, NY USA). An image was taken and was manually measured in the software by selecting an upper and lower border, as defined above. The distance was measured in microns.
(§2) RNA was extracted from cell cultures using an RNA extraction kit (Roche Diagnostics, Mahheim, Germany). cDNA was synthesized from 500 ng of total RNA using the Verso cDNA kit (Thermo Fisher Scientific, Waltham, MA, USA). cDNA PCR amplification was carried out using the Fast SYBR Green Master Mix in a StepOnePlus™ Real-Time PCR System (Applied Biosystems, Foster City, CA, USA) with gene-specific intron-crossing oligonucleotide pairs listed in Table 1 (below). For quantification, standard curves were obtained using serially diluted cDNA amplified in the same qRT-PCR run. The melting temperature (Tm) of the amplified products was measured to confirm the specificity of the reaction conditions. Cycling conditions were as follows: 95° C. for 10 minutes, 95° C. for 10 seconds, 62° C. for 15 seconds, and 72° C. for 25 seconds for a total of 40 cycles. Each sample was analyzed in triplicate. mRNA expression level for target gene was normalized to GAPDH. The results are based the amount of target, normalized to an endogenous reference (IACTB) and relative to a calibrator, as calculated by 2-ΔΔCT. All samples were run in triplicate. The expression levels of target genes were expressed as mRNA relative units.
This hypothesis was tested in a murine model in which psoriasiform dermatitis was induced using imiquimod [as previously described in Tortola, L. et al. (2012) J Clin Invest 122, 3965-76].
Balb/c mice were treated topically with imiquimod and were injected five times a week i.p. with either the vehicle, 22.5 mg/kg of CaCx or 7.5 mg/kg of ApDx.
After 5 days, biopsies were obtained from the treated skin and stained for hematoxylin and eosin as well as for Ki67 (FIGS. 4A-F), as a surrogate marker for cellular proliferation.

SAMD9 [3] = test: SAMD9 RNA expression by qRT-PCR in HeLa cells; type: cell-based, human; conditions: for SAMD9 expression in HeLa cells: 5 μM, 24 hours, qRT-PCR vs DMSO (FIG. 1C); for SAMD9 expression fold change in HeLa cells: fold increase in RNA gene expression vs cells treated with vehicle only
Method: HeLa cells were cultured in DMEM 4.5 g/l glucose medium containing 10% FCS, 1% L-glutamine and 1% penicillin and streptomycin (Biological Industries) and grown at 37° C. and 5% CO2.
as §1, §2
(§3) The potential ability of these 31 molecules to induce SAMD9 expression in cell cultures was then scrutinized.

SAMD9 [4] = test: SAMD9 RNA expression by qRT-PCR in primary fibroblasts; type: cell-based, human; conditions: for SAMD9 expression in primary fibroblasts: 5 μM, 24 hours, qRT-PCR vs DMSO (FIG. 1C); for Dose and time dependence of SAMD9 up-regulation: primary fibroblasts, 5 μM over 72 hours, 1, 2, 5, 10 μM (FIGS. 2A-B)
Method: (§4) Primary fibroblasts were isolated from human adult skin and were grown in High Glucose DMEM, 10% Fetal Bovine Serum, L-glutamine and Pen-Strep. Medium was changed every 2-3 days. Cells were used at passage 2-3.
as §1, §2, §3

EGR1 = EGR1 RNA expression by qRT-PCR in primary fibroblasts; type: cell-based, human; conditions: 5 μM over 72 hours, different time points (FIG. 3)
Method: as §4, §1
RNA was extracted from cell cultures using an RNA extraction kit (Roche Diagnostics, Mahheim, Germany). cDNA was synthesized from 500 ng of total RNA using the Verso cDNA kit (Thermo Fisher Scientific, Waltham, MA, USA). cDNA PCR amplification was carried out using the Fast SYBR Green Master Mix in a StepOnePlus™ Real-Time PCR System (Applied Biosystems, Foster City, CA, USA) with gene-specific intron-crossing oligonucleotide pairs listed in Table 1 (below). For quantification, standard curves were obtained using serially diluted cDNA amplified in the same qRT-PCR run. The melting temperature (Tm) of the amplified products was measured to confirm the specificity of the reaction conditions. […] Each sample was analyzed in triplicate. mRNA expression level for target gene was normalized to GAPDH. The results are based the amount of target, normalized to an endogenous reference (IACTB) and relative to a calibrator, as calculated by 2-ΔΔCT. […] The expression levels of target genes were expressed as mRNA relative units.

SAMD9 promoter = test: High-throughput luciferase reporter screen in HeLa line stably expressing 585 bp SAMD9 promoter fragment; type: cell-based, human; conditions: Homo sapiens, HeLa; fold increase in promoter activity by luciferase assay vs cells treated with vehicle only; test drugs 10 μM, 24 hours; read-out: SAMD9 expression fold change in HeLa reporter assay
Method: HeLa cell lines stably expressing the constructs were generated under neomycin selection. Briefly, pGL4.17 containing a SAMD9 promoter fragment spanning 585 bp upstream to the TSS and an empty pGL4.17 vector were transfected into HeLa cells. Forty eight hours after transfection, standard medium was replaced with medium containing 600 μg/ml G418 (Sigma-Aldrich), cells were kept under G418 selection and the selective medium was replaced approximately every 2-3 days. After two passages, colonies of stable cells were isolated, expanded and frozen for further use.
Test drugs were dispensed at a concentration of 10 μM by a robotic system into 96-well plates containing 9000 cells/well expressing the pGL4.17 reporter construct carrying a 585 bp SAMD9 promoter fragment operably linked to luciferase gene or the empty pGL4.17 luciferase construct (Promega cat. no. E6721). Medium was removed after 24 hours and the cells subjected to Steady-Glo luciferase lysis-substrate solution assay (Promega) as described above. Liquid handling was done with the Tecan (Tecan) Freedom 150 (Robotic & MCA liquid Handling System) and the luciferase reading was done with a robot integrated Tecan Infinite® M1000 reader.
This cell line was then used to robotically screen a total of 1496 compounds obtained from the National Cancer Institute Diversity Set III and Oncology Drugs Set III small molecule libraries.

Q: With `Cc1c2ccnc(C(N)=O)c2c(C)c2c1[nH]c1ccccc12.Cl` [Compound 335142, 6H-Pyrido[4,3-b]carbazole-1-carboxamide, 5,11-dimethyl-, monohydrochloride] as the molecule, how does the “SAMD9 expression in TERC-transformed fibroblasts” value (SAMD9 [1]) read?
A: significantly induce

Q: What about the Overt toxicity [2] of the same molecule?
A: No overt toxicity

Q: And the Inflammatory infiltrate [2]?
A: did not affect

Q: And the Epidermal thickness [2]?
A: decrease

Q: What about the “Index of proliferation (Ki67)” value [2] of the same molecule?
A: decrease

Q: What about the “EGR1 RNA levels in treated skin” value [2] of the same molecule?
A: significant decrease

Q: And the “IL-33 RNA levels in treated skin” value [2]?
A: significant decrease

Q: What about the “SAMD9 expression in HeLa cells” value (SAMD9 [3]) of the same molecule?
A: significantly induce

Q: And the “SAMD9 expression fold change in HeLa cells” value (SAMD9 [3])?
A: 6.44 fold

Q: And the “SAMD9 expression in primary fibroblasts” value (SAMD9 [4])?
A: significantly induce

Q: What about the “Dose and time dependence of SAMD9 up-regulation” value (SAMD9 [4]) of the same molecule?
A: both dose and time dependent

Q: What about the “EGR1 expression in primary fibroblast cells” value (EGR1) of the same molecule?
A: significantly down-regulated

Q: What about the fold induction at 10 µM (SAMD9 promoter) of the same molecule?
A: 2.95

Q: How did the “SAMD9 expression in TERC-transformed fibroblasts” value (SAMD9 [1]) turn out when `CCCN1c2ccc(N)cc2S(=O)(=O)c2cc(Cl)cc(Cl)c21` [Compound 629971, 7,9-dichloro-5,5-dioxo-10-propylphenothiazin-3-amine] was run?
A: significantly induce

Q: And the Overt toxicity [2]?
A: No overt toxicity

Q: And the Inflammatory infiltrate [2]?
A: did not affect

Q: And the Epidermal thickness [2]?
A: decrease

Q: And the “Index of proliferation (Ki67)” value [2]?
A: decrease

Q: What about the “EGR1 RNA levels in treated skin” value [2] of the same molecule?
A: significant decrease

Q: What about the “IL-33 RNA levels in treated skin” value [2] of the same molecule?
A: significant decrease

Q: What about the “SAMD9 expression in HeLa cells” value (SAMD9 [3]) of the same molecule?
A: significantly induce

Q: And the “SAMD9 expression fold change in HeLa cells” value (SAMD9 [3])?
A: 20.5 fold

Q: And the “SAMD9 expression in primary fibroblasts” value (SAMD9 [4])?
A: significantly induce

Q: And the “Dose and time dependence of SAMD9 up-regulation” value (SAMD9 [4])?
A: both dose and time dependent

Q: And the “EGR1 expression in primary fibroblast cells” value (EGR1)?
A: significantly down-regulated

Q: And the fold induction at 10 µM (SAMD9 promoter)?
A: 4.85
